According to paper PMC6465285, “Arsinothricin, an arsenic-containing non-proteinogenic amino acid analog of glutamate, is a broad-spectrum antibiotic” (Communications Biology, 2019):

Experiments:
[1] = target: T1, PpArsN1 (ArsN1 N-acetyltransferase) (Pseudomonas putida, UniProt Q88LK7)
T1 construct: gene PP_1924

[2] = target: T2, SvPAT (phosphinothricin N-acetyltransferase) (Streptomyces viridochromogenes, UniProt Q57146); test: DTNB acetyltransferase assay, Km; details: read-out: Specific activity (nmol s^-1 mg^-1 PpArsN1) / Km
T2 construct: gene pat

[3] = target: T1, PpArsN1 (ArsN1 N-acetyltransferase); remark: listed apart in the source
[4] = target: T3, glutamine synthetase (Escherichia coli, UniProt P0A9C5); test: coupled ADP/NADH oxidation assay with purified enzyme; assay type: biochemical
T3 construct: gene glnA

[5] = target: T3, glutamine synthetase; test: coupled ADP/NADH oxidation assay, Km; assay type: biochemical
[6] = target: PpArsN1, arsinothricin N-acetyltransferase ArsN1 of Pseudomonas putida KT2440 (Pseudomonas putida KT2440); test: SEC; size-exclusion chromatography of purified PpArsN1 in solution (Supplementary Figure 2); conditions not given
[7] = system: CP(=O)(O)CC[C@H](N)C(=O)O; test: purified protein; details: acetyl coenzyme A

T3 sequence (P0A9C5 2-469): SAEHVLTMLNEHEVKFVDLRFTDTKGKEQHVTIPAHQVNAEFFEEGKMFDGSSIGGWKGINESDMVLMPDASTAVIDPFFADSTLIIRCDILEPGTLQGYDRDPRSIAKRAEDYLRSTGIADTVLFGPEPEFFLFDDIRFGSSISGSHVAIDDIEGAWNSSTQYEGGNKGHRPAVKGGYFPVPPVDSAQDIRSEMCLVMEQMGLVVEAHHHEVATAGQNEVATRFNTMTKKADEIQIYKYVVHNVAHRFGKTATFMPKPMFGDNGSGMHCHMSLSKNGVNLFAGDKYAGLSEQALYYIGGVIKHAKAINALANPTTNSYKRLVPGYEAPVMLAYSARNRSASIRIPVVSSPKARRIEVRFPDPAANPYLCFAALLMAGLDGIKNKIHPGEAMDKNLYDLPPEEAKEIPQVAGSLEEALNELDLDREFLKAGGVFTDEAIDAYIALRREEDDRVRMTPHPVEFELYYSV
T2 sequence (Q57146 whole entry, looked up): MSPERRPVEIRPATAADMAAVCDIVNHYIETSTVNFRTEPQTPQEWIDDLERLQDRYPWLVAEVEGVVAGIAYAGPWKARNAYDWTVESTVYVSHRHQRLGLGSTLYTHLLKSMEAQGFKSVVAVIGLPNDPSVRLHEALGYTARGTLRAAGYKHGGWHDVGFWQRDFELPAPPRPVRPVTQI

Compound: C[As](=O)(O)CC[C@H](N)C(=O)O [AST, 2-amino-4-(hydroxymethylarsinoyl)butanoate]
- Km [1]: 11 ± 3 µM
- Km [2]: 12 ± 2 µM

Compound: CS(=N)(=O)CC[C@H](N)C(=O)O (stereo partly drawn) [L-MSO, L-methionine sulfoximine]
- Specific activity (nmol s^-1 mg^-1 PpArsN1) / Substrate [3]: 2.1 ± 0.1 nmol/s/mg

Compound: CP(=O)(O)CC[C@H](N)C(=O)O [L-PPT, 2-amino-4-(hydroxymethylphosphinyl)butanoate]
- Ki [4]: 400 ± 150 nM

Compound: N[C@@H](CCC(=O)O)C(=O)O [L-glutamate]
- Km [5]: 2700 ± 600 µM

Compound: PpArsN1, arsinothricin N-acetyltransferase ArsN1 of Pseudomonas putida KT2440 (enzyme)
- stoichiometry N [6]: 2

Compound: SvPAT (phosphinothricin N-acetyltransferase) (Streptomyces viridochromogenes DSM 40736)
- Km [7]: 47 ± 2 µM
- kcat [7]: 3.1 s⁻¹
- kcat/Km [7]: 66000 M⁻¹ s⁻¹
